{"source": "patent US20250049037A1", "about": "“HERBICIDAL ACTIVITY OF ALKYL PHOSPHINATES” (priority 2021, published 2025)", "type_in_all_cases": "in vivo", "key": {"[1]": {"tested_on": "Alopercurus myosuroides (ALOMY)", "test": "Greenhouse herbicidal test, post-emergence", "settings": "postemergence, application rate 5 kg/ha, scale 0 to 100", "excerpt": "(§1) The culture containers used were plastic flowerpots containing loamy sand with approximately 3.0% of humus as the substrate. The seeds of the test plants were sown separately for each species.\n(§2) For the post-emergence treatment, the test plants were first grown to a height of 2 to 15 cm, depending on the plant habit, and only then treated with the active ingredients which had been suspended or emulsified in water. For this purpose, the test plants were either sown directly and grown in the same containers, or they were first grown separately as seedlings and transplanted into the test containers a few days prior to treatment.\n(§3) Depending on the species, the test plants were kept at 10-25° C. or 20-35° C., respectively.\n(§4) The test period extended over 2 to 4 weeks. During this time, the test plants were tended, and their response to the individual treatments was evaluated.\n(§5) Evaluation was carried out using a scale from 0 to 100. 100 means no emergence of the test plants, or complete destruction of at least the aerial moieties, and 0 means no damage, or normal course of growth. A moderate herbicidal activity is given at values of 40 to 59, good herbicidal activity is given at values of more than 59 to 80 and a very good herbicidal activity is given at values of more than 80 to 100."}, "[2]": {"tested_on": "Apera spica-venti (APESV)", "test": "Greenhouse herbicidal test, pre-emergence", "settings": "application rate 5 kg/ha, scale 0 to 100", "excerpt": "as §1\nFor the pre-emergence treatment, the active ingredients, which had been suspended or emulsified in water, were applied directly after sowing by means of finely distributing nozzles. The containers were irrigated gently to promote germination and growth and subsequently covered with transparent plastic hoods until the test plants had rooted. This cover caused uniform germination of the test plants, unless this had been impaired by the active ingredients.\nas §3, §4, §5"}, "Setaria viridis (SETVI)": {"tested_on": "Setaria viridis (SETVI)", "test": "Greenhouse herbicidal test, post-emergence", "settings": "postemergence, application rate 5 kg/ha, scale 0 to 100", "excerpt": "as §1, §2, §3, §4, §5"}, "[3]": {"tested_on": "Amaranthus retroflexus (AMARE)", "test": "Greenhouse herbicidal test, post-emergence", "settings": "postemergence, application rate 5 kg/ha, scale 0 to 100", "excerpt": "as §1, §2, §3, §4, §5"}, "[4]": {"tested_on": "Echinocloa crus-galli (ECHCG)", "test": "Greenhouse herbicidal test, post-emergence", "settings": "postemergence, application rate 5 kg/ha, scale 0 to 100", "excerpt": "as §1, §2, §3, §4, §5"}}}
{"compound": "CP(=O)(O)CCC(NC(N)=O)C(=O)O", "note": "(centres unmarked) [Compound a]", "values": [{"measurement": "herbicidal activity against ALOMY", "setting": "[1]", "value": "moderate (A moderate herbicidal activity is given at values of 40 to 59)"}]}
{"compound": "CP(=O)(O)CC[C@@H](NC(N)=O)C(=O)O", "note": "[Compound b]", "values": [{"measurement": "herbicidal activity against APESV", "setting": "[2]", "value": "good (good herbicidal activity is given at values of more than 59 to 80)"}]}
{"compound": "CP(=O)(O)CCC1NC(=O)NC1=O", "note": "(centres unmarked) [Compound e]", "values": [{"measurement": "herbicidal activity against SETVI", "setting": "Setaria viridis (SETVI)", "value": "good (good herbicidal activity is given at values of more than 59 to 80)"}]}
{"compound": "CCCCOP(C)(=O)CCC(NC(N)=O)C(=O)O", "note": "(centres unmarked) [Compound f, 4-[butoxy(methyl)phosphoryl]-2-ureido-butanoic acid]", "values": [{"measurement": "herbicidal activity against AMARE", "setting": "[3]", "value": "good (good herbicidal activity is given at values of more than 59 to 80)"}, {"measurement": "herbicidal activity against ECHCG", "setting": "[4]", "value": "good (good herbicidal activity is given at values of more than 59 to 80)"}]}
